Results from US20040009464A1, “Methods for identifying compounds for inhibition of neoplastic lesions, and pharmacetical compositions containing such compounds” (priority 1998, published 2004).

Legend:
[1] = Safety evaluation in exisulind clinical trials; format: in vivo
Method: In these exisulind trials and several others involving the drug in other indications, safety was evaluated by monitoring adverse events (AEs), clinical laboratory tests (hematology, serum chemistry, and urinalysis), vital signs (blood pressure, pulse rate, respiratory rate, temperature, and weight), physical examination, and upper endoscopy.

HT-29 cells = experiment: Apoptosis and necrosis by morphology (acridine orange/ethidium bromide) in HT-29 cells; format: cell-based, human; conditions: HT-29 treated for six days
Excerpt: Apoptosis occurs naturally during normal tissue turnover and during embryonic development of organs and limbs. Apoptosis also is induced by cytotoxic T-lymphocytes and natural killer cells, by ionizing radiation and by certain chemotherapeutic drugs. Inappropriate regulation of apoptosis is thought to play an important role in many pathological conditions including cancer, AIDS, or Alzheimer's disease, etc. Compounds can be screened for induction of apoptosis using cultures of tumor cells maintained under conditions as described above. Treatment of cells with test compounds involves either pre- or post-confluent cultures and treatment for two to seven days at various concentrations. Apoptotic cells are measured in both the attached and “floating” compartments of the cultures. Both compartments are collected by removing the supernatant, trypsinizing the attached cells, and combining both preparations following a centrifugation wash step (10 minutes, 2000 rpm). The protocol for treating tumor cell cultures with sulindac and related compounds to obtain a significant amount of apoptosis has been described in the literature. […]
The apoptosis inducing activity for a series of phosphodiesterase inhibitors was determined. […] Apoptosis and necrosis were determined morphologically after acridine orange and ethidium bromide labeling in accordance with the assay described, supra.

[2] = test system: β-catenin and PKG in SW480 cells; experiment: Western blot of β-catenin and PKG in SW480 cells; format: cell-based, human
Method: SW480 cells treated with exisulind as described previously are harvested from the microfuge tubes by rinsing once with ice-cold PBS. The cells are lysed by modified RIPA buffer for 15 minutes with agitation. The cell lysate is spun down in a cold room. The supernatants are transferred to fresh microcentrifuge tubes immediately after spinning. BioRad DC Protein Assay (Temecula, CA) is performed to determine the protein concentrations in samples. The samples are normalized for protein concentration, as described above.
50 μg of each sample is loaded to 10% SDS gel. SDS-PAGE is performed, and the proteins then are transferred to a nitrocellulose membrane. The blotted nitrocellulose membrane are blocked in freshly prepared TBST containing 5% nonfat dry milk for one hour at room temperature with constant agitation.
A goat-anti-PKG primary antibody is diluted to the recommended concentration/dilution in fresh TBST/5% nonfat dry milk. The nitrocellulose membrane is placed in the primary antibody solution and incubated one hour at room temperature with agitation. The nitrocellulose membrane is washed three times for ten minutes each with TBST. […]
This observation was made by culturing SW480 cells with either 200, 400 or 600 μM exisulind or vehicle (0.1% DMSO). […] Immuno-reactive protein can be detected by Western blot. […]

polyps in APC patients = experiment: Clinical prevention trial in patients with adenomatous polyposis coli (APC); format: in vivo, human
Excerpt: The first clinical trial involved patients with APC. using exisulind. In that study, each patient had already had his/her colon removed, except for a small section of colon adjacent the rectum (where the small intestine was attached) to preserve rectal function. However, such a patient commonly forms polyps in the small remaining colonic section, which polyps require periodic removal (e.g., by electrocautery).
That trial where exisulind was selected was a prevention trial designed to evaluate the anti-neoplastic characteristics of the drug by comparing the cumulative number of new polyps formed over twelve months by the drug and placebo groups. Eligible patients were those who form between 9 and 44 polyps per year. Patients were fully ablated (had all polyps removed) at the start of the study, at the end of 6 months and at the end of 12 months. The study enrolled thirty-four eligible patients. […] Based on the median number of polyps produced in the first six months of the study, patients treated with exisulind developed approximately one-third the number of polyps as patients treated with placebo (median values 9 polyps/year and 26 polyps/year, respectively; p=0.013). […]

For `CC1=C(CC(=O)O)c2cc(F)ccc2/C1=C\c1ccc(S(C)(=O)=O)cc1` [Exisulind, 5-fluoro-2-methyl-1-(p-methylsulfonylbenzylidene)-3-indenylacetic acid], the “clinical safety” value ([1]; human, in vivo) was “No outstanding safety issues have been demonstrated”, the “dose-limiting adverse events” value ([1]; human, in vivo) was “elevations in liver function tests” and the “apoptosis rates in polyp and normal colonic tissues” value ([1]; paired biopsies in APC patients) was “increased apoptosis rates in polyp, but not normal colonic tissues”. The “apoptotic and necrotic cell death” value (HT-29 cells) was “capable of causing apoptotic cell death without inducing necrosis”, the “reduction of β-catenin expression compared to control” value ([2]; SW480, 200, 400 or 600 μM, 48 hours, Western blot) was 50% and the “PKG level by Western blot” value ([2]; SW480, 48 hours) was “increase of PKG”. For the same compound, the “median number of polyps, entire 12 months” value (polyps in APC patients; entire 12 months of the study) was 18 polyps/year and the “median number of polyps, first six months” value (polyps in APC patients; first six months of the study) was 9 polyps/year.
